# From PubChem BioAssay (NCI)
#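 Cultured in 96-well plates, cells were exposed to test compound for 48 hours across five concentrations. TGI denotes the concentration required for complete inhibition of growth.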
# Assays:
# Test in all cases: growth of human tumour cells (NCI), 48 h
# HCT-116 colon = system: HCT-116 colon
# SF-539 CNS = system: SF-539 CNS
# OVCAR-4 ovarian = system: OVCAR-4 ovarian
# OVCAR-8 ovarian = system: OVCAR-8 ovarian
# MOLT-4 leukemia = system: MOLT-4 leukemia
# SF-268 CNS = system: SF-268 CNS
# 786-0 renal = system: 786-0 renal
# UACC-62 melanoma = system: UACC-62 melanoma
# HCC-2998 colon = system: HCC-2998 colon
# MALME-3M melanoma = system: MALME-3M melanoma
# SK-MEL-2 melanoma = system: SK-MEL-2 melanoma
# U251 CNS = system: U251 CNS
# LOX IMVI melanoma = system: LOX IMVI melanoma
# RPMI-8226 leukemia = system: RPMI-8226 leukemia
# RXF 393 renal = system: RXF 393 renal
# NCI-H23 lung = system: NCI-H23 lung
# SNB-19 CNS = system: SNB-19 CNS
# IGROV1 ovarian = system: IGROV1 ovarian
# OVCAR-5 ovarian = system: OVCAR-5 ovarian
# ACHN renal = system: ACHN renal
# KM20L2 colon = system: KM20L2 colon
# TK-10 renal = system: TK-10 renal
# UACC-257 melanoma = system: UACC-257 melanoma
# HOP-92 NSCLC = system: HOP-92 NSCLC
# HT29 colon = system: HT29 colon
# M14 melanoma = system: M14 melanoma
# SK-MEL-28 melanoma = system: SK-MEL-28 melanoma
# UO-31 renal = system: UO-31 renal
# A498 renal = system: A498 renal
# SK-OV-3 ovarian = system: SK-OV-3 ovarian
# HCT-15 colon = system: HCT-15 colon
# DLD-1 colon = system: DLD-1 colon
# NCI-H226 lung = system: NCI-H226 lung
# SR leukemia = system: SR leukemia
# SF-295 CNS = system: SF-295 CNS
# COLO 205 colon = system: COLO 205 colon
# OVCAR-3 ovarian = system: OVCAR-3 ovarian
# SN12C renal = system: SN12C renal
# XF 498 CNS = system: XF 498 CNS
# KM12 colon = system: KM12 colon
# HL-60(TB) leukemia = system: HL-60(TB) leukemia
# HOP-18 NSCLC = system: HOP-18 NSCLC
# SW-620 colon = system: SW-620 colon
# NCI-H460 lung = system: NCI-H460 lung
# RXF-631 renal = system: RXF-631 renal
# K-562 leukemia = system: K-562 leukemia
# DU-145 prostate = system: DU-145 prostate
# LXFL 529 NSCLC = system: LXFL 529 NSCLC
# M19-MEL melanoma = system: M19-MEL melanoma
# SNB-75 CNS = system: SNB-75 CNS
# NCI-H522 lung = system: NCI-H522 lung
# CCRF-CEM leukemia = system: CCRF-CEM leukemia
# EKVX NSCLC = system: EKVX NSCLC
# DMS 273 small cell lung = system: DMS 273 small cell lung
# SK-MEL-5 melanoma = system: SK-MEL-5 melanoma
# HOP-62 NSCLC = system: HOP-62 NSCLC
# A549 NSCLC = system: A549 NSCLC
# DMS 114 small cell lung = system: DMS 114 small cell lung
# CAKI-1 renal = system: CAKI-1 renal
# SNB-78 CNS = system: SNB-78 CNS
smiles,measurement,setting,value
C=C=C(Sc1ccccc1)C(C)(C)O,TGI,HCT-116 colon,> 100 µM
same,TGI,SF-539 CNS,> 100 µM
same,TGI,OVCAR-4 ovarian,> 100 µM
same,TGI,OVCAR-8 ovarian,> 100 µM
same,TGI,MOLT-4 leukemia,> 100 µM
same,TGI,SF-268 CNS,> 100 µM
same,TGI,786-0 renal,> 100 µM
same,TGI,UACC-62 melanoma,> 100 µM
same,TGI,HCC-2998 colon,> 100 µM
same,TGI,MALME-3M melanoma,> 100 µM
same,TGI,SK-MEL-2 melanoma,> 100 µM
same,TGI,U251 CNS,> 100 µM
same,TGI,LOX IMVI melanoma,> 100 µM
same,TGI,RPMI-8226 leukemia,> 100 µM
same,TGI,RXF 393 renal,> 100 µM
same,TGI,NCI-H23 lung,> 100 µM
same,TGI,SNB-19 CNS,> 100 µM
same,TGI,IGROV1 ovarian,> 100 µM
same,TGI,OVCAR-5 ovarian,> 100 µM
same,TGI,ACHN renal,> 100 µM
same,TGI,KM20L2 colon,> 100 µM
same,TGI,TK-10 renal,> 100 µM
same,TGI,UACC-257 melanoma,> 100 µM
same,TGI,HOP-92 NSCLC,> 100 µM
same,TGI,HT29 colon,> 100 µM
same,TGI,M14 melanoma,> 100 µM
same,TGI,SK-MEL-28 melanoma,> 100 µM
same,TGI,UO-31 renal,> 100 µM
same,TGI,A498 renal,> 100 µM
same,TGI,SK-OV-3 ovarian,> 100 µM
same,TGI,HCT-15 colon,> 100 µM
same,TGI,DLD-1 colon,> 100 µM
same,TGI,NCI-H226 lung,> 100 µM
same,TGI,SR leukemia,> 100 µM
same,TGI,SF-295 CNS,> 100 µM
same,TGI,COLO 205 colon,> 100 µM
same,TGI,OVCAR-3 ovarian,> 100 µM
same,TGI,SN12C renal,> 100 µM
same,TGI,XF 498 CNS,> 100 µM
same,TGI,KM12 colon,> 100 µM
same,TGI,HL-60(TB) leukemia,> 100 µM
same,TGI,HOP-18 NSCLC,> 100 µM
same,TGI,SW-620 colon,> 100 µM
same,TGI,NCI-H460 lung,> 100 µM
same,TGI,RXF-631 renal,> 100 µM
same,TGI,K-562 leukemia,> 100 µM
same,TGI,DU-145 prostate,> 100 µM
same,TGI,LXFL 529 NSCLC,> 100 µM
same,TGI,M19-MEL melanoma,> 100 µM
same,TGI,SNB-75 CNS,> 100 µM
same,TGI,NCI-H522 lung,> 100 µM
same,TGI,CCRF-CEM leukemia,> 100 µM
O=C(Cc1ccc(F)cc1)NC1=C(Cl)C(=O)c2ccccc2C1=O,TGI,HCT-116 colon,11.9 µM
same,TGI,SF-539 CNS,5.02 µM
same,TGI,OVCAR-4 ovarian,9.28 µM
same,TGI,OVCAR-8 ovarian,4.05 µM
same,TGI,SF-268 CNS,15.1 µM
same,TGI,786-0 renal,19.5 µM
same,TGI,UACC-62 melanoma,9.87 µM
same,TGI,HCC-2998 colon,16 µM
same,TGI,MALME-3M melanoma,7.89 µM
same,TGI,SK-MEL-2 melanoma,6.33 µM
same,TGI,U251 CNS,11.5 µM
same,TGI,LOX IMVI melanoma,9.05 µM
same,TGI,RPMI-8226 leukemia,4.14 µM
same,TGI,RXF 393 renal,4.11 µM
same,TGI,NCI-H23 lung,5.94 µM
same,TGI,SNB-19 CNS,> 100 µM
same,TGI,IGROV1 ovarian,6.63 µM
same,TGI,OVCAR-5 ovarian,13.1 µM
same,TGI,ACHN renal,3.4 µM
same,TGI,KM20L2 colon,34.8 µM
same,TGI,TK-10 renal,14.5 µM
same,TGI,UACC-257 melanoma,6.56 µM
same,TGI,HOP-92 NSCLC,3.68 µM
same,TGI,EKVX NSCLC,16 µM
same,TGI,HT29 colon,35.4 µM
same,TGI,DMS 273 small cell lung,13.6 µM
same,TGI,M14 melanoma,12.4 µM
same,TGI,SK-MEL-28 melanoma,11.6 µM
same,TGI,UO-31 renal,7.88 µM
same,TGI,SK-OV-3 ovarian,58.3 µM
same,TGI,HCT-15 colon,7.43 µM
same,TGI,DLD-1 colon,4.24 µM
same,TGI,NCI-H226 lung,12.7 µM
same,TGI,SR leukemia,3.34 µM
same,TGI,SF-295 CNS,12 µM
same,TGI,COLO 205 colon,12.7 µM
same,TGI,OVCAR-3 ovarian,9.33 µM
same,TGI,SN12C renal,13.8 µM
same,TGI,XF 498 CNS,4.02 µM
same,TGI,SK-MEL-5 melanoma,11.3 µM
same,TGI,KM12 colon,14.4 µM
same,TGI,HL-60(TB) leukemia,0.39 µM
same,TGI,SW-620 colon,5.76 µM
same,TGI,HOP-62 NSCLC,44.6 µM
same,TGI,A549 NSCLC,16.4 µM
same,TGI,DMS 114 small cell lung,1.8 µM
same,TGI,NCI-H460 lung,13.8 µM
same,TGI,RXF-631 renal,> 50 µM
same,TGI,CAKI-1 renal,19.8 µM
same,TGI,LXFL 529 NSCLC,10.5 µM
same,TGI,M19-MEL melanoma,14.7 µM
same,TGI,SNB-75 CNS,18.3 µM
same,TGI,NCI-H522 lung,1.25 µM
same,TGI,CCRF-CEM leukemia,> 100 µM
same,TGI,SNB-78 CNS,34.7 µM
